Here are results for 23 molecules from ChEMBL document CHEMBL1157396, “Dihydroagarofuranoid sesquiterpenes, a lignan derivative, a benzenoid, and antitubercular constituents from the stem of Microtropis japonica” (2008).

The subject of this test is Mycobacterium tuberculosis. The test can be described thus: Antitubercular activity against Mycobacterium tuberculosis H37Rv after 2 weeks by agar dilution method. The class given is functional. Particulars: 336 h.

In brackets after ≈: the same amount, converted by molar mass.

Molecule `COc1cc(C(=O)C(CO)c2cc(OC)c(O)c(OC)c2)ccc1O` (stereo not drawn) [5-METHOXYEVOFOLIN B] returned a minimum inhibitory concentration (MIC) of 215 µM (≈ 74.9 µg/mL).
In the case of `COc1cc(C=O)ccc1O` [VANILLIN] it was greater than 400 µM; in that of `COc1cc2ccc(=O)oc2cc1OC` [SCOPARONE], 388 µM (≈ 80 µg/mL).
The value for `CCOc1cc(C=O)ccc1O` [ETHYL VANILLIN] was greater than 400 µM; that for `CC(=O)O[C@H]1C[C@@H](C)[C@]23OC(C)(C)[C@H]([C@H](OC(=O)c4ccccc4)[C@H](OC(=O)c4ccccc4)[C@]2(COC(=O)c2ccccc2)[C@H]1OC(C)=O)[C@H]3OC(C)=O` was 79.3 µM (≈ 60 µg/mL).
In the case of `CC(=O)OC[C@]12[C@@H](OC(=O)c3ccccc3)C[C@@H]3[C@@H](OC(C)=O)[C@]1(OC3(C)C)[C@H](C)C[C@H](O)[C@@H]2OC(C)=O` [SALASOL A] it was 28.2 µM (≈ 15 µg/mL); in that of `CC(=O)O[C@H]1[C@@H](OC(=O)c2ccccc2)C[C@@H](C)[C@]23OC(C)(C)[C@H](C[C@H](OC(=O)c4ccccc4)[C@]12COC(=O)c1ccccc1)[C@H]3OC(=O)c1ccccc1` [FOKIENAGAROFURAN D], 105 µM (≈ 79.9 µg/mL); in that of `COc1cc(O)c2c(c1)O[C@H](c1ccc(O)cc1)CC2=O` [SAKURANETIN], 209 µM (≈ 59.8 µg/mL).
Turning to `CC(=O)O[C@@H]1[C@H]2C[C@H](OC(=O)c3ccccc3)[C@]3(COC(=O)c4ccccc4)[C@@H](OC(C)=O)[C@@H](OC(=O)c4ccccc4)C[C@@H](C)[C@@]13OC2(C)C` [FOKIENAGAROFURAN A], the MIC came to 85.9 µM (≈ 60 µg/mL).
The value for `COc1cc(C=O)cc(OC)c1O` [SYRINGALDEHYDE] was greater than 400 µM; that for `COc1cc(/C=C/C=O)ccc1O` [CONIFERYL ALDEHYDE] was greater than 400 µM; that for `CC[C@@H](CO)NCCN[C@@H](CC)CO` [ETHAMBUTOL] was 30.6 µM (≈ 6.25 µg/mL).
The value for `COc1cc(C(=O)C(CO)c2ccc(O)c(OC)c2)ccc1O` (stereo not drawn) [EVOFOLIN B] was 235 µM (≈ 74.8 µg/mL).
The value for `CC(=O)O[C@H]1C[C@@H](COC(=O)c2ccccc2)[C@]23OC(C)(C)[C@H](C[C@H](OC(=O)c4ccccc4)[C@]2(C)[C@H]1OC(C)=O)[C@H]3OC(=O)c1ccccc1` was 95 µM (≈ 66.4 µg/mL); that for `COc1cc(/C=C\C(=O)OC[C@H](Cc2ccc(O)c(OC)c2)[C@H](COC(=O)/C=C\c2ccc(O)c(OC)c2)Cc2ccc(O)c(OC)c2)ccc1O` was 122 µM (≈ 87.2 µg/mL); that for `COc1cc(C(=O)CCO)ccc1O` was 153 µM (≈ 30 µg/mL).
The molecule `CN1CCCC1=O` [METHYLPYRROLIDONE] came in with an MIC greater than 400 µM.
In turn, `CC(=O)OC[C@]12[C@@H](OC(=O)c3ccccc3)C[C@@H]3[C@@H](OC(C)=O)[C@]1(OC3(C)C)[C@H](C)C[C@H](OC(C)=O)[C@@H]2O` [CELAHIN C] displayed an MIC of 31.3 µM (≈ 16.7 µg/mL).
The value for `COc1cc(C(=O)O)ccc1O` [VANILLIC ACID] was 238 µM (≈ 40 µg/mL); that for `CC[C@H](CC[C@@H](C)[C@H]1CC[C@H]2[C@@H]3CC=C4C[C@@H](O)CC[C@]4(C)[C@H]3CC[C@]12C)C(C)C` [BETA-SITOSTEROL] was greater than 400 µM; that for `CC(=O)OC[C@]12[C@@H](OC(=O)c3ccccc3)C[C@@H]3[C@@H](OC(=O)c4ccccc4)[C@]1(OC3(C)C)[C@H](C)C[C@H](OC(=O)c1ccccc1)[C@@H]2OC(C)=O` was 39.6 µM (≈ 27.7 µg/mL).
The value for `CC[C@H](CC[C@@H](C)[C@H]1CC[C@H]2[C@@H]3C(=O)C=C4C[C@@H](O)CC[C@]4(C)[C@H]3CC[C@]12C)C(C)C` was 128 µM (≈ 54.9 µg/mL); that for `COc1cc(/C=C/C(=O)OC[C@H](Cc2ccc(O)c(OC)c2)[C@H](COC(=O)/C=C/c2ccc(O)c(OC)c2)Cc2ccc(O)c(OC)c2)ccc1O` was 126 µM (≈ 90.1 µg/mL).
